From ChEMBL document CHEMBL4340530, “Peptide-based covalent inhibitors of MALT1 paracaspase” (Bioorg Med Chem Lett, 2019) come the findings set out here.

The structures appear in SMILES notation. Active and inactive are the calls of the source. The rule behind the calls is not given here.

In test [1] the target is T1, Mucosa-associated lymphoid tissue lymphoma translocation protein 1 (Homo sapiens) (UniProt Q9UDY8).
T1 sequence (whole entry): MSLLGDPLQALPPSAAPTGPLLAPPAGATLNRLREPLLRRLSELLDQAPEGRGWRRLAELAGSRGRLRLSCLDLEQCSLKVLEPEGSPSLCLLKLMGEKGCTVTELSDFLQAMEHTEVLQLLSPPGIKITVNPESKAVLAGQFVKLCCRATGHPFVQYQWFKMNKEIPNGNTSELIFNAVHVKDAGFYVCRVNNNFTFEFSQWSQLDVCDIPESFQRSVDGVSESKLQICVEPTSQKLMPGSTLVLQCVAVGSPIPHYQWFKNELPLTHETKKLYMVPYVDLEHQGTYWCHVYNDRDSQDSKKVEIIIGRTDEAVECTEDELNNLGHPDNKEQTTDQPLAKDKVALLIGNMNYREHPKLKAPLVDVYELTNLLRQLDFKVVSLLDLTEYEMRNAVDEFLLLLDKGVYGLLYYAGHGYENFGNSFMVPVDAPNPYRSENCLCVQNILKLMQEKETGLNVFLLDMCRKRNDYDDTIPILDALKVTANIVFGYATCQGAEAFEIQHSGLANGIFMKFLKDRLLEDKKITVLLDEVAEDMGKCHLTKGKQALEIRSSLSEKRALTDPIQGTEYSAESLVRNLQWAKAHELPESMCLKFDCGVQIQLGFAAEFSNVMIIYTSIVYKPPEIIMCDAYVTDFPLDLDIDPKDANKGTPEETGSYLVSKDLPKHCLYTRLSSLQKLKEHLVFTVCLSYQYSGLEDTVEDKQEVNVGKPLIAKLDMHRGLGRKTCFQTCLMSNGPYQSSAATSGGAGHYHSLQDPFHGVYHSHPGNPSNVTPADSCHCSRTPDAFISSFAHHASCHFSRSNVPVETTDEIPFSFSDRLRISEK
The experiment in a line: Inhibition of MALT1 in human OCI-LY3 cells assessed as reduction in Relb cleavage at 20 uM by Western blot analysis. The test is classed as cell-based.

The target in test [2] is T2, Mucosa-associated lymphoid tissue lymphoma translocation protein 1 (Homo sapiens, UniProt Q9UDY8).
T2 sequence (Q9UDY8 whole entry): T1 sequence (whole entry)
The experiment in a line: Inhibition of recombinant LZ-fused MALT1 (340 to 789 residues) (unknown origin) using Ac-LRSR-AMC as substrate by fluorescence assay.

Test [3] has as its system OCI-Ly3. The experiment in a line: Antiproliferative activity against human OCI-LY3 cells assessed as growth inhibition treated every 48 hrs measured after 96 hrs by CellTiter-Glo assay. Type of test: functional.
Test [4] has as its system OCI-Ly1. The experiment in a line: Antiproliferative activity against human OCI-LY1 cells up to 20 uM. Type of test: functional, cell-based.
Test [5] addresses T3, Calpain1/2 (Homo sapiens) (UniProt P17655+P07384). The experiment in a line: Inhibition of calpain (unknown origin) at 10 uM relative to control. The test is classed as protein assay.
Test [6] addresses Cathepsin B (Homo sapiens) (UniProt P07858). The experiment in a line: Inhibition of cathepsin B (unknown origin) at 10 uM relative to control.
Test [7] has as its target T4, Cathepsin K (Homo sapiens) (UniProt P43235).
T4 sequence (whole entry): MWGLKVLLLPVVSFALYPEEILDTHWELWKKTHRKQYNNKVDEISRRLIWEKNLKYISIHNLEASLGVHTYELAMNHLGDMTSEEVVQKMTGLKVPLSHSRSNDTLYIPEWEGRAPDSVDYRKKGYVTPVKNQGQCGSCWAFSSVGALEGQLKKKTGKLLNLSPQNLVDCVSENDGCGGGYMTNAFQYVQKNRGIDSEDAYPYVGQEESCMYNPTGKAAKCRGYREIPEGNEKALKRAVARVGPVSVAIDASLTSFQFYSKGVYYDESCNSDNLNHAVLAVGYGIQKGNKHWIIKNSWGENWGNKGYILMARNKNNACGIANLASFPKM
The experiment in a line: Inhibition of cathepsin K (unknown origin) at 10 uM relative to control.

Test [8] deals with Procathepsin L (Homo sapiens) (UniProt P07711). The experiment in a line: Inhibition of cathepsin L (unknown origin) at 10 uM relative to control.
Procathepsin L (Homo sapiens), sequence (P07711 114-333 limits assumed): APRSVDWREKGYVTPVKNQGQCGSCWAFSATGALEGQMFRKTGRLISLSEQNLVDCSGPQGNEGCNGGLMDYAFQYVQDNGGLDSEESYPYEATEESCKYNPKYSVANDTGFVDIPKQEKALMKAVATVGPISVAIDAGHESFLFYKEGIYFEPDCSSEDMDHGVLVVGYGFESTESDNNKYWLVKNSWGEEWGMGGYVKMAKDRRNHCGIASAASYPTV
For test [9], the target named is Cathepsin S (Homo sapiens) (UniProt P25774). The experiment in a line: Inhibition of cathepsin S (unknown origin) at 10 uM relative to control.
Cathepsin S (Homo sapiens), sequence (P25774 115-331 limits assumed): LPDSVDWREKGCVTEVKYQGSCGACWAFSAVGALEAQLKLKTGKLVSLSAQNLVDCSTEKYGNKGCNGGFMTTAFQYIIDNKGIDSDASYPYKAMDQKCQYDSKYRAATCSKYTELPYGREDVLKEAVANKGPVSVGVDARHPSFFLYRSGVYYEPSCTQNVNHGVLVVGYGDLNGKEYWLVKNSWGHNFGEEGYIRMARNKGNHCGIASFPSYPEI
In test [10] the target is T5, Cathepsin L2 (Homo sapiens) (UniProt O60911).
T5 sequence (whole entry): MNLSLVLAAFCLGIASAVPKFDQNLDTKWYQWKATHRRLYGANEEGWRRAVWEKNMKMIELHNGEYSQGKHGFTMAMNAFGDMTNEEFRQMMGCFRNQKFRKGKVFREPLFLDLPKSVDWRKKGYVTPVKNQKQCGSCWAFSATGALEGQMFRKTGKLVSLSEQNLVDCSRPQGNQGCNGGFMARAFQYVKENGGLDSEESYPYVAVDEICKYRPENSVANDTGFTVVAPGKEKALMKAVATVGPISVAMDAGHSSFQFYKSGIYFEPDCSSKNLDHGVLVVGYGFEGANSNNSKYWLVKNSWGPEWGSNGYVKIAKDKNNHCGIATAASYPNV
The experiment in a line: Inhibition of cathepsin V (unknown origin) at 10 uM relative to control.

Test [11] deals with Prothrombin (Homo sapiens) (UniProt P00734). The experiment in a line: Inhibition of thrombin (unknown origin) at 10 uM relative to control.
Test [12] has as its target T6, Trypsin (Homo sapiens) (UniProt P07477+P07478+P35030). The experiment in a line: Inhibition of trypsin (unknown origin) at 10 uM relative to control. The test is classed as protein assay.
Test [13] deals with Tryptase beta-2 (Homo sapiens) (UniProt P20231). The experiment in a line: Inhibition of tryptase b2 (unknown origin) at 10 uM relative to control.
Tryptase beta-2 (Homo sapiens), sequence (P20231 whole entry): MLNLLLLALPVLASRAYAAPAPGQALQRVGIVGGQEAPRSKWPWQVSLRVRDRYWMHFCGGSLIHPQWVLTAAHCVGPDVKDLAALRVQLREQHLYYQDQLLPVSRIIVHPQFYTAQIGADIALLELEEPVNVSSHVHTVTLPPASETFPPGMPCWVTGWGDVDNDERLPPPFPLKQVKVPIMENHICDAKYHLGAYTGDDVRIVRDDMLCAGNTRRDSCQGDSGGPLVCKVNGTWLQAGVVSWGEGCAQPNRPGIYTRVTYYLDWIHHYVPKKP
Test [14] addresses T3, Calpain1/2 (Homo sapiens). The experiment in a line: Inhibition of calpain (unknown origin) at 1 uM relative to control. The test is classed as protein assay.
Test [15] has as its target Cathepsin B (Homo sapiens) (UniProt P07858). The experiment in a line: Inhibition of cathepsin B (unknown origin) at 1 uM relative to control.
Test [16] concerns the target T4, Cathepsin K (Homo sapiens). The experiment in a line: Inhibition of cathepsin K (unknown origin) at 1 uM relative to control.
In test [17] the target is Cathepsin S (Homo sapiens) (UniProt P25774). The experiment in a line: Inhibition of cathepsin S (unknown origin) at 1 uM relative to control.
The target of test [18] is T5, Cathepsin L2 (Homo sapiens). The experiment in a line: Inhibition of cathepsin V (unknown origin) at 1 uM relative to control.
Test [19] concerns the target Prothrombin (Homo sapiens) (UniProt P00734). The experiment in a line: Inhibition of thrombin (unknown origin) at 1 uM relative to control.
Test [20] deals with T6, Trypsin (Homo sapiens). The experiment in a line: Inhibition of trypsin (unknown origin) at 1 uM relative to control. The test is classed as protein assay.
Test [21] concerns the target Tryptase beta-2 (Homo sapiens) (UniProt P20231). The experiment in a line: Inhibition of tryptase b2 (unknown origin) at 1 uM relative to control.
Test [22] addresses T3, Calpain1/2 (Homo sapiens). The experiment in a line: Inhibition of calpain (unknown origin) at 100 nM relative to control. The test is classed as protein assay.
Test [23] addresses Cathepsin B (Homo sapiens) (UniProt P07858). The experiment in a line: Inhibition of cathepsin B (unknown origin) at 100 nM relative to control.
Test [24] concerns the target T4, Cathepsin K (Homo sapiens). The experiment in a line: Inhibition of cathepsin K (unknown origin) at 100 nM relative to control.
Test [25] has as its target Cathepsin S (Homo sapiens) (UniProt P25774). The experiment in a line: Inhibition of cathepsin S (unknown origin) at 100 nM relative to control.
Test [26] deals with Prothrombin (Homo sapiens) (UniProt P00734). The experiment in a line: Inhibition of thrombin (unknown origin) at 100 nM relative to control.
The target of test [27] is T6, Trypsin (Homo sapiens). The experiment in a line: Inhibition of trypsin (unknown origin) at 100 nM relative to control. The test is classed as protein assay.
For test [28], the target named is Tryptase beta-2 (Homo sapiens) (UniProt P20231). The experiment in a line: Inhibition of tryptase b2 (unknown origin) at 100 nM relative to control.
The target of test [29] is Procathepsin L (Homo sapiens) (UniProt P07711). The experiment in a line: Inhibition of cathepsin L (unknown origin) at 1 uM relative to control.
Test [30] has the same target. The experiment in a line: Inhibition of cathepsin L (unknown origin) at 100 nM relative to control.
Test [31] has as its target T5, Cathepsin L2 (Homo sapiens). The experiment in a line: Inhibition of cathepsin V (unknown origin) at 100 nM relative to control.

T3 sequence (P07384 whole entry, looked up): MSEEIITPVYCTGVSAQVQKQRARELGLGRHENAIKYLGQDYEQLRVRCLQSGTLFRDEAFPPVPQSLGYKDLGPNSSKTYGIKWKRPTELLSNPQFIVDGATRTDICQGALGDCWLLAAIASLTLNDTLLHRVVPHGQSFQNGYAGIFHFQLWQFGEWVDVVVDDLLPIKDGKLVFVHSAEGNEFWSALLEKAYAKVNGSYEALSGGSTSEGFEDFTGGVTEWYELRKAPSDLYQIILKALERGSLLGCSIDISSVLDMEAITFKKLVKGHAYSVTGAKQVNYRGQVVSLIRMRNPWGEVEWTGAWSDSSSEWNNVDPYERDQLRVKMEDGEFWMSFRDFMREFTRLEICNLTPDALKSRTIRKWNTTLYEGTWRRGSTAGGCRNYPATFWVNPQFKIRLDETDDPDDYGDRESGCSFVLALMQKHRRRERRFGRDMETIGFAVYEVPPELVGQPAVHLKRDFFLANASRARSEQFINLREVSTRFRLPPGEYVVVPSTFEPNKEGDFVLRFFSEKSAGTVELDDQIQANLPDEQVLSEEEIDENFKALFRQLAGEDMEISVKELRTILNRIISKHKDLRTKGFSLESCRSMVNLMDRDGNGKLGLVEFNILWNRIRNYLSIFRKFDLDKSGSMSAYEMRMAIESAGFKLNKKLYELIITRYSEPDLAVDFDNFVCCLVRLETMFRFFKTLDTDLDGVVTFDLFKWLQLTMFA
T3 sequence (P17655 whole entry, looked up): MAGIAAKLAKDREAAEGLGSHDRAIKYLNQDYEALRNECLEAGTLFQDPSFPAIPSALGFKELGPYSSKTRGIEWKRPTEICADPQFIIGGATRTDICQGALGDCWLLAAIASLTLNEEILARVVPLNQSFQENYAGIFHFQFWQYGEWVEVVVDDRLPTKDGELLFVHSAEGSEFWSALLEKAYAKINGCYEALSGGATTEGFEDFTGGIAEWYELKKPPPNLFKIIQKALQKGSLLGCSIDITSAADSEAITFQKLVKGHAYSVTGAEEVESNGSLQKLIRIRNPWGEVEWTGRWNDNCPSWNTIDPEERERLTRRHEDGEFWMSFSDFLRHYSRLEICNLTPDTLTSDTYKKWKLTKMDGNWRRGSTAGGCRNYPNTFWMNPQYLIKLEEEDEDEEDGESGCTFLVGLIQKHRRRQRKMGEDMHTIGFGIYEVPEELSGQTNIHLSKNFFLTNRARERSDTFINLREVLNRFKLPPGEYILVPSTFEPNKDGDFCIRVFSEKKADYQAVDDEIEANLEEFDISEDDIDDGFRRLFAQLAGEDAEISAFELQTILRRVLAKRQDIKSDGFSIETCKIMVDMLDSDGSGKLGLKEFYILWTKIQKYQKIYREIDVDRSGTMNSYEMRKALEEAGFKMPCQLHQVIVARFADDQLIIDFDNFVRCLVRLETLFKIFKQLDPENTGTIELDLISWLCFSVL

Turning to `CCC(=O)[C@H](CCCNC(=N)N)NC(=O)[C@@H]1CCCN1C(=O)[C@@H](NC(=O)[C@H](CC(C)C)NC(=O)OCc1ccccc1)C(C)C`, the inhibition entry in test [1] was “inactive”. Further, the Ki in test [2] was more than 5000 nM. In [3], the GI50 was more than 20000 nM. The result in test [4] was inactive.

On to `CC(C)[C@H](NC(=O)c1ccc(Br)cc1)C(=O)N1CCCC[C@H]1C(=O)N[C@@H](CCCNC(=N)N)C(=O)CF`, for which, in [3], the concentration for 50% growth inhibition (GI50) was determined as 460 nM. Moreover, the inhibition is 112% in test [5]; 98.2% in [6]; 98.9% in [7]; 36.2% in [8]; 99.7% in test [9]; 86.3% in test [10]. In addition, the inhibition turned out to be 75.8% in [11]; 93.7% in test [12]; 31% in test [13]; 76% in [14]; 79.7% in [15]; 98.1% in test [16]. For the same compound, the inhibition in test [17] stood at 85.7%; in test [18], 32.1%; in test [19], 19.4%; in test [20], 91%; in test [21], 3.4%; in test [22], 25.9%. The inhibition stood at 10.7% in test [23]; 68.7% in [24]; 82.2% in test [25]; 4.6% in [26]; 65% in test [27]; 1% in test [28].

Regarding `CC(C)[C@H](NC(=O)c1ccc(Br)cc1)C(=O)N[C@@H](CO)C(=O)N[C@@H](CCCNC(=N)N)C(=O)CF`, in test [3], the concentration for 50% growth inhibition (GI50) came to 150 nM. Further, the inhibition was found to be 105% in [5]; 100% in test [6]; 89.7% in [7]; 49.4% in [8]; 100% in test [9]; 94.1% in [10]. Moreover, the inhibition in test [11] worked out at 41.8%; in [12], 94.2%; in test [13] it was 47.5%; in test [14] it was 99.8%; in test [15], 99.5%; in test [16], 38.3%. Further, the inhibition in test [29] turned out to be 11.2%; in [17], 100%; in test [18] it was 58.4%; in [19] it was 1.1%; in test [20], 92.6%; in test [21], 15.3%. Moreover, the inhibition in test [22] worked out at 98.5%; in test [23], 88.7%; in test [24] it was 28.8%; in test [30] it was 13%; in test [25] it was 99%; in test [31], 29.8%. The inhibition was found to be 2.3% in test [26], 64% in [27] and 6.5% in [28].
